Experimental data from paper PMC5766233, “Ternary copper(II) complex: NCI60 screening, toxicity studies, and evaluation of efficacy in xenograft models of nasopharyngeal carcinoma” (PLoS ONE, 2018).

Key:
[1] = Cytotoxicity in rat primary hepatocytes (resazurin); conditions: male, Wistar, rat, freshly isolated rat primary hepatocytes
CYP1A = test: Cytochrome P450 induction assay in rat primary hepatocytes, CYP1A; assay type: in vitro ADME; conditions: 1.0 μM, 3 days
Excerpt: %Activity=(averagearearatiooftreated/averagearearatioofbasalcontrol)x100

[2] = tested on: BGC823 (gastric cancer cells) xenograft; set-up: method as in earlier work; conditions: cited from earlier work
NCI leukemia cell lines = conditions: cited from earlier work
[3] = tested on: NCI60 human cancer cell line panel; conditions: ref cisplatin NSC number 119875; cited from earlier work

Question: With CC/C(=C(\c1ccccc1)c1ccc(OCCN(C)C)cc1)c1ccccc1 [Tamoxifen, reference compound] as the compound, how does the IC50 at 72 h [1] read?
Answer: 5.1 µM

Question: With Cc1ccc2cc3c(ccc4ccccc43)c3c2c1CC3 [3-Methyl cholanthrene, reference compound] as the compound, how does the “Fold induction CYP1A” value (CYP1A) read?
Answer: 10.9

Question: What about the fold induction at 3 days, 1 µM (CYP1A; rat, rat primary hepatocytes, probe phenacetin (100 μM in HBSS)) of the same compound?
Answer: > 10

Question: With [Ru(dmb)2(salH)]PF6 as the compound, how does the “toxicity compared to cisplatin” value ([2]; 5 mg/kg) read?
Answer: insignificant nephrotoxicity and nephrotoxicity

Question: What about the xenograft growth ([2]; 5 mg/kg) of the same compound?
Answer: significantly suppressed

Question: Which “sensitivity of most NCI leukemia cell lines” value (NCI leukemia cell lines) does the source give for O=C([O-])c1ccccc1C(=O)[O-].[Cu+2].c1cnc2c(c1)ccc1cccnc12 [[Cu(o-phthalate)(phenanthroline)]] here?
Answer: resistant

Question: For N.N.[Cl][Pt][Cl] [cisplatin], which organ damage ([2]; 4 mg/kg) is on record?
Answer: considerable damage to liver and kidney

Question: And the “xenograft growth, compared with [Ru(dmb)2(salH)]PF6” value ([2]; 4 mg/kg)?
Answer: slightly less effective

Question: What about the GI50 [3] of the same compound?
Answer: 1.49 µM
